Measurements published in patent US20150307938A1, “METHOD TO IDENTIFY A NOVEL CLASS OF IMMUNOLOGIC ADJUVANTS” (Lancell, L.L.C., priority 2011, published 2015).

Test system: skin
Experiment: Affymetrix microarray of skin, DBP-4 hr and analogs vs. untreated; gene selection by log-2 fold change, Wilcoxon, Kendall tau (Tables 8, 9)
Assay type: in vivo, mouse

Question: How did the “Log2 Expression Level” value (gene #1 of Table 8) turn out when `CCN(CC)C(=O)c1cccc(C)c1` [DEET, N,N-diethyl-toluamide] was run?
Answer: Its value is 6.74.

Question: What about the “Log2 Expression Level” value (gene #2 of Table 8) of the same molecule?
Answer: The value was 6.44.

Question: And the “Log2 Expression Level” value (gene #3 of Table 8)?
Answer: Its value is 9.66.

Question: What about the “Log2 Expression Level” value (gene #4 of Table 8) of the same molecule?
Answer: Its value is 9.66.

Question: What about the “Log2 Expression Level” value (gene #5 of Table 8) of the same molecule?
Answer: The value was 8.20.

Question: And the “Log2 Expression Level” value (gene #6 of Table 8)?
Answer: Its value is 7.42.

Question: And the “Log2 Expression Level” value (gene #7 of Table 8)?
Answer: Its value is 6.76.

Question: And the “Log2 Expression Level” value (gene #8 of Table 8)?
Answer: The value was 7.42.

Question: What about the “Log2 Expression Level” value (gene #9 of Table 8) of the same molecule?
Answer: The value was 7.42.

Question: What about the “Log2 Expression Level” value (gene #10 of Table 8) of the same molecule?
Answer: The value was 7.42.

Question: What about the “Log2 Expression Level” value (gene #11 of Table 8) of the same molecule?
Answer: The value was 6.76.

Question: And the “Log2 Expression Level” value (gene #12 of Table 8)?
Answer: Its value is 6.76.

Question: What about the “Log2 Expression Level” value (gene #13 of Table 8) of the same molecule?
Answer: The value was 6.76.

Question: What about the “Log2 Expression Level” value (gene #14 of Table 8) of the same molecule?
Answer: The value was 5.31.

Question: What about the “Log2 Expression Level” value (gene #15 of Table 8) of the same molecule?
Answer: Its value is 5.31.

Question: And the “Log2 Expression Level” value (gene #16 of Table 8)?
Answer: The value was 7.68.

Question: What about the “Log2 Expression Level” value (gene #17 of Table 8) of the same molecule?
Answer: Its value is 9.60.

Question: What about the “Log2 Expression Level” value (gene #18 of Table 8) of the same molecule?
Answer: Its value is 9.60.

Question: What about the “Log2 Expression Level” value (gene #19 of Table 8) of the same molecule?
Answer: The value was 10.04.

Question: And the “Log2 Expression Level” value (gene #20 of Table 8)?
Answer: Its value is 11.87.

Question: And the “Log2 Expression Level” value (gene #21 of Table 8)?
Answer: Its value is 9.61.

Question: What about the “Log2 Expression Level” value (gene #22 of Table 8) of the same molecule?
Answer: Its value is 8.47.

Question: And the “Log2 Expression Level” value (gene #23 of Table 8)?
Answer: The value was 7.75.

Question: What about the “Log2 Expression Level” value (gene #24 of Table 8) of the same molecule?
Answer: Its value is 8.21.

Question: What about the “Log2 Expression Level” value (gene #25 of Table 8) of the same molecule?
Answer: Its value is 8.21.

Question: What about the “Log2 Expression Level” value (gene #26 of Table 8) of the same molecule?
Answer: The value was 8.83.

Question: And the “Log2 Expression Level” value (gene #27 of Table 8)?
Answer: The value was 8.83.

Question: And the “Log2 Expression Level” value (gene #28 of Table 8)?
Answer: The value was 8.83.

Question: And the “Log2 Expression Level” value (gene #29 of Table 8)?
Answer: Its value is 7.20.

Question: What about the “Log2 Expression Level” value (gene #30 of Table 8) of the same molecule?
Answer: Its value is 9.06.

Question: And the “Log2 Expression Level” value (gene #31 of Table 8)?
Answer: The value was 9.06.

Question: And the “Log2 Expression Level” value (gene #32 of Table 8)?
Answer: Its value is 9.06.

Question: What about the “Log2 Expression Level” value (gene #33 of Table 8) of the same molecule?
Answer: Its value is 6.10.

Question: What about the “Log2 Expression Level” value (gene #34 of Table 8) of the same molecule?
Answer: Its value is 7.43.

Question: And the “Log2 Expression Level” value (gene #35 of Table 8)?
Answer: Its value is 7.43.

Question: What about the “Log2 Expression Level” value (gene #36 of Table 8) of the same molecule?
Answer: The value was 9.66.

Question: And the “Log2 Expression Level” value (gene #37 of Table 8)?
Answer: The value was 9.66.

Question: What about the “Log2 Expression Level” value (gene #38 of Table 8) of the same molecule?
Answer: Its value is 9.66.

Question: What about the “Log2 Expression Level” value (gene #39 of Table 8) of the same molecule?
Answer: The value was 8.11.

Question: And the “Log2 Expression Level” value (gene #40 of Table 8)?
Answer: The value was 8.22.

Question: What about the “Log2 Expression Level” value (gene #41 of Table 8) of the same molecule?
Answer: The value was 8.43.

Question: What about the “Log2 Expression Level” value (gene #42 of Table 8) of the same molecule?
Answer: Its value is 7.97.

Question: What about the “Log2 Expression Level” value (gene #43 of Table 8) of the same molecule?
Answer: The value was 7.97.

Question: What about the “Log2 Expression Level” value (gene #44 of Table 8) of the same molecule?
Answer: Its value is 8.43.

Question: What about the “Log2 Expression Level” value (gene #45 of Table 8) of the same molecule?
Answer: Its value is 7.97.

Question: And the “Log2 Expression Level” value (gene #46 of Table 8)?
Answer: The value was 8.43.

Question: And the “Log2 Expression Level” value (gene #47 of Table 8)?
Answer: The value was 9.23.

Question: What about the “Log2 Expression Level” value (gene #48 of Table 8) of the same molecule?
Answer: Its value is 9.23.

Question: And the “Log2 Expression Level” value (gene #49 of Table 8)?
Answer: The value was 9.23.

Question: What about the “Log2 Expression Level” value (gene #50 of Table 8) of the same molecule?
Answer: The value was 10.17.

Question: What about the “Log2 Expression Level” value (gene #51 of Table 8) of the same molecule?
Answer: The value was 8.15.

Question: What about the “Log2 Expression Level” value (gene #52 of Table 8) of the same molecule?
Answer: Its value is 10.64.

Question: What about the “Log2 Expression Level” value (gene #53 of Table 8) of the same molecule?
Answer: The value was 9.22.

Question: And the “Log2 Expression Level” value (gene #54 of Table 8)?
Answer: The value was 10.01.

Question: What about the “Log2 Expression Level” value (gene #55 of Table 8) of the same molecule?
Answer: Its value is 8.18.

Question: What about the “Log2 Expression Level” value (gene #56 of Table 8) of the same molecule?
Answer: Its value is 10.41.

Question: And the “Log2 Expression Level” value (gene #57 of Table 8)?
Answer: Its value is 9.06.

Question: What about the “Log2 Expression Level” value (gene #58 of Table 8) of the same molecule?
Answer: Its value is 9.46.

Question: And the “Log2 Expression Level” value (gene #59 of Table 8)?
Answer: The value was 8.46.

Question: And the “Log2 Expression Level” value (gene #60 of Table 8)?
Answer: Its value is 7.24.

Question: What about the “Log2 Expression Level” value (gene #61 of Table 8) of the same molecule?
Answer: The value was 12.16.

Question: What about the “Log2 Expression Level” value (gene #62 of Table 8) of the same molecule?
Answer: Its value is 8.52.

Question: And the “Log2 Expression Level” value (gene #63 of Table 8)?
Answer: The value was 11.76.

Question: And the “Log2 Expression Level” value (gene #64 of Table 8)?
Answer: Its value is 11.40.

Question: What about the “Log2 Expression Level” value (gene #65 of Table 8) of the same molecule?
Answer: Its value is 8.25.

Question: What about the “Log2 Expression Level” value (gene #66 of Table 8) of the same molecule?
Answer: The value was 9.07.

Question: What about the “Log2 Expression Level” value (gene #67 of Table 8) of the same molecule?
Answer: The value was 5.71.

Question: And the “Log2 Expression Level” value (gene #68 of Table 8)?
Answer: Its value is 10.87.

Question: What about the “Log2 Expression Level” value (gene #69 of Table 8) of the same molecule?
Answer: The value was 7.06.

Question: What about the “Log2 Expression Level” value (gene #70 of Table 8) of the same molecule?
Answer: Its value is 5.72.

Question: And the “Log2 Expression Level” value (gene #71 of Table 8)?
Answer: The value was 7.84.

Question: What about the “Log2 Expression Level” value (gene #72 of Table 8) of the same molecule?
Answer: Its value is 9.65.

Question: And the “Log2 Expression Level” value (gene #73 of Table 8)?
Answer: Its value is 8.88.

Question: And the “Log2 Expression Level” value (gene #74 of Table 8)?
Answer: The value was 7.48.

Question: What about the “Log2 Expression Level” value (gene #75 of Table 8) of the same molecule?
Answer: Its value is 10.04.

Question: What about the “Log2 Expression Level” value (gene #76 of Table 8) of the same molecule?
Answer: Its value is 5.76.

Question: What about the “Log2 Expression Level” value (gene #77 of Table 8) of the same molecule?
Answer: Its value is 9.62.

Question: And the “Log2 Expression Level” value (gene #78 of Table 8)?
Answer: The value was 9.85.

Question: And the “Log2 Expression Level” value (gene #79 of Table 8)?
Answer: Its value is 8.03.

Question: What about the “Log2 Expression Level” value (gene #80 of Table 8) of the same molecule?
Answer: Its value is 13.18.

Question: What about the “Log2 Expression Level” value (gene #81 of Table 8) of the same molecule?
Answer: The value was 6.94.

Question: What about the “Log2 Expression Level” value (gene #82 of Table 8) of the same molecule?
Answer: The value was 6.28.

Question: And the “Log2 Expression Level” value (gene #83 of Table 8)?
Answer: Its value is 8.09.

Question: And the “Log2 Expression Level” value (gene #84 of Table 8)?
Answer: Its value is 8.70.

Question: And the “Log2 Expression Level” value (gene #85 of Table 8)?
Answer: The value was 9.57.

Question: And the “Log2 Expression Level” value (gene #86 of Table 8)?
Answer: Its value is 8.02.

Question: What about the “Log2 Expression Level” value (gene #87 of Table 8) of the same molecule?
Answer: The value was 11.32.

Question: What about the “Log2 Expression Level” value (gene #88 of Table 8) of the same molecule?
Answer: Its value is 10.03.

Question: What about the “Log2 Expression Level” value (gene #89 of Table 8) of the same molecule?
Answer: The value was 6.25.

Question: And the “Log2 Expression Level” value (gene #90 of Table 8)?
Answer: The value was 11.13.

Question: What about the “Log2 Expression Level” value (gene #91 of Table 8) of the same molecule?
Answer: Its value is 9.01.

Question: And the “Log2 Expression Level” value (gene #92 of Table 8)?
Answer: Its value is 7.14.

Question: And the “Log2 Expression Level” value (gene #93 of Table 8)?
Answer: The value was 10.13.

Question: What about the “Log2 Expression Level” value (gene #94 of Table 8) of the same molecule?
Answer: The value was 9.19.

Question: And the “Log2 Expression Level” value (gene #95 of Table 8)?
Answer: The value was 7.20.

Question: And the “Log2 Expression Level” value (gene #96 of Table 8)?
Answer: Its value is 9.02.

Question: What about the “Log2 Expression Level” value (gene #97 of Table 8) of the same molecule?
Answer: Its value is 5.86.

Question: And the “Log2 Expression Level” value (gene #98 of Table 8)?
Answer: Its value is 6.82.

Question: And the “Log2 Expression Level” value (gene #99 of Table 8)?
Answer: Its value is 10.05.

Question: What about the “Log2 Expression Level” value (gene #100 of Table 8) of the same molecule?
Answer: The value was 8.86.
